{
  "source": "paper PMC6934184",
  "about": "“Selective DNA-PKcs inhibition extends the therapeutic index of localized radiotherapy and chemotherapy” (The Journal of Clinical Investigation, 2019)",
  "target": "T1, AMPK (A2/B2/G2) (Homo sapiens, UniProt P54646)",
  "T1 construct": "purchased Thermo Fisher Scientific (Life Technologies) SelectScreen",
  "T1 sequence (P54646 whole entry)": "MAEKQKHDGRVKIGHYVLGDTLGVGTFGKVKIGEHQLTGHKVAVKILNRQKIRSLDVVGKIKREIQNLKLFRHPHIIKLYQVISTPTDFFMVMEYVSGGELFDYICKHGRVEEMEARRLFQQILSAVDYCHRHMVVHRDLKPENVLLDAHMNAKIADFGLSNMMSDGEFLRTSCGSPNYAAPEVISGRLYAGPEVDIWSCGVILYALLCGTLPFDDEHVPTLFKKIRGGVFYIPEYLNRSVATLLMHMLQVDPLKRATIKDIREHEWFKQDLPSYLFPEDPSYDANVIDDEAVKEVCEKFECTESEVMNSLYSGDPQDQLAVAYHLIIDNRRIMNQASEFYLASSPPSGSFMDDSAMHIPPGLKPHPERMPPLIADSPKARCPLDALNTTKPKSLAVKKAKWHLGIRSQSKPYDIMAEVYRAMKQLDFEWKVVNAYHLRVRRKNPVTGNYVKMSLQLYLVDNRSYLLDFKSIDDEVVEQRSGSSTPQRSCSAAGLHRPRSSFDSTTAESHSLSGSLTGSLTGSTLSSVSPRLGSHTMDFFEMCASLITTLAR",
  "T1 sequence (O43741 whole entry partner)": "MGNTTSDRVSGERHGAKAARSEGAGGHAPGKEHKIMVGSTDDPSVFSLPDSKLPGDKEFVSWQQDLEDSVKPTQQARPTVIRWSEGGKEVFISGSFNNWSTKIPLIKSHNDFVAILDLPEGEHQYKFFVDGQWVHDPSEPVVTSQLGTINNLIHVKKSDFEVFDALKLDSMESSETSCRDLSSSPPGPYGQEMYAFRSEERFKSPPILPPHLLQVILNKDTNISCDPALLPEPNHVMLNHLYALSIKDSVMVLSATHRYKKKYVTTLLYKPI",
  "T1 sequence (Q9UGJ0 whole entry partner)": "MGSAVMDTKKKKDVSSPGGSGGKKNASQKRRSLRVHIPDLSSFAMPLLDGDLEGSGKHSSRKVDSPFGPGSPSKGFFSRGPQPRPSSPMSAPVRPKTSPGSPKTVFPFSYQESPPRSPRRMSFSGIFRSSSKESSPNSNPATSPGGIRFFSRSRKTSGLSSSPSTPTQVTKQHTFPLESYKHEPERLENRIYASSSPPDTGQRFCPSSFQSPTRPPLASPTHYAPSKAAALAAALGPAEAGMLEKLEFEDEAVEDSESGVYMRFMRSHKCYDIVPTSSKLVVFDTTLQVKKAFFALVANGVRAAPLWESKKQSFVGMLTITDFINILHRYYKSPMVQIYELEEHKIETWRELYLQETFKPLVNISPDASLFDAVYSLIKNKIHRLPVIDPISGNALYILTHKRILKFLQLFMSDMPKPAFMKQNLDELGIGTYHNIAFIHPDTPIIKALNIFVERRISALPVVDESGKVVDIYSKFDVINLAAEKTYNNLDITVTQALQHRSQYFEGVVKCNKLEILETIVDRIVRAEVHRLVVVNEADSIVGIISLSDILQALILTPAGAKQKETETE",
  "experiment": "SelectScreen LanthaScreen",
  "type": "binding",
  "conditions": "read-out: % displacement",
  "procedure,_shortened": "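Percent values come from Thermo SelectScreen profiling of NU5455, combining activity and binding assays. CSF1R was run in Z'LYTE format at Km app ATP, and CAMK1 in Adapta format with ATP listed at 10.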",
  "data": [
    {"smiles": "CN(C(=O)CN1CCOCC1)c1ccc2sc3c(-c4cccc5c(=O)cc(N6CC7CCC(C6)O7)oc45)cccc3c2c1", "note": "[NU5455]", "values": [
      {"measurement": "inhibition at 1 µM", "value": -2.6, "unit": "%"}
    ]}
  ]
}
